Legend:
[1] = cited from earlier work
[2] = Methylene blue (MB) dye oxidation / color removal test; conditions: hydrogen peroxide alone, after several days

Compound | pKa [1] | effect on methylene blue [2]
[O]O [superoxide] | 4.8 | 
OO [hydrogen peroxide] | 11.6 | no visible effect
CC(=O)OO [peroxyacetic acid] | 8.3 | 

From patent publication US10875799B2, “System and method for generation of point of use reactive oxygen species” (Clean Chemistry, Inc., priority 2012, dated 2020)
